From PubChem BioAssay (NCI) come the findings set out here.

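Interpolation was linear, between the two tested concentrations surrounding the appropriate level; five concentrations were tested over 48 hours in 96-well plates. GI50: concentration for 50% inhibition of growth. TGI: total growth inhibition.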 Bounds are passed on as bounds.

A word on the TGI: it is the concentration giving total growth inhibition. A lower TGI goes with greater sensitivity of the cells. In general, GI50 refers to the concentration at which growth is held to half of that of the control.

Assay in all cases: DTP human tumour cell line panel, 48 h
Experiment [1] concerns HL-60(TB) leukemia.
The subject of experiment [2] is HOP-62 NSCLC.
Experiment [3] concerns KM12 colon.
The test system of experiment [4] is NCI-H460 lung.
The test system of experiment [5] is NCI-H522 lung.
Experiment [6] concerns OVCAR-3 ovarian.
The test system of experiment [7] is SF-268 CNS.
For experiment [8], the system named is TK-10 renal.
Experiment [9] deals with UACC-257 melanoma.
The subject of experiment [10] is MDA-MB-231 breast.

For the molecule `CCC/C(=N\NC(=O)c1cc2ccccc2cc1O)C(CC)C(=O)CCC(=O)N(Cc1ccccc1)Cc1ccccc1` (centres undefined), the TGI in [1] was 40.1 µM; in [2], above 100 µM; in experiment [3], above 100 µM; in [4], above 100 µM; in [5], above 100 µM; in experiment [6], above 100 µM. Moreover, the TGI in experiment [7], in [8] and in [9] was above 100 µM in each case.

Take `Cc1cccc(NC(=O)CC#N)c1Cl`: the TGI in experiment [1], in experiment [3], in [5], in experiment [6], in experiment [7] and in [8] was above 100 µM throughout. The molecule also displayed a TGI in experiment [9] above 100 µM.

Take `CC(=O)OCC1OC(Sc2ccccn2)C=CC1OC(C)=O` (centres undefined): the TGI in [1], in experiment [2], in experiment [3], in [5], in experiment [6] and in experiment [7] was above 100 µM in each case. The TGI in experiment [8] and in [9] was above 100 µM in each case.

Take `N#CC1=C(c2ccccc2)C(O)(c2ccccc2)NC1=O` (centres undefined): the TGI in [1], in [2], in [3], in experiment [4], in experiment [6] and in [7] was above 100 µM in each case. Further, the TGI in experiment [8] and in experiment [9] was above 100 µM throughout.

With `BrC12c3ccccc3Sc3ccccc3C1(Br)c1ccccc12` (centres undefined), the TGI was 29.1 µM in [1]; 42.9 µM in experiment [2]; 38.9 µM in [3]; above 100 µM in experiment [4]; 44.6 µM in experiment [5]; above 100 µM in experiment [7]. The TGI in experiment [8] worked out at 99.6 µM; in [9], 86.3 µM.

In the case of `O=c1/c(=C/c2ccc3c(c2)OCO3)sc2nnc(-c3ccco3)n12`, the TGI in experiment [1], in [2], in experiment [3], in experiment [4], in [5] and in experiment [6] was above 100 µM in each case. Further, the TGI in experiment [7], in [8] and in experiment [9] was above 100 µM each time.

Take `COc1ccc(/C(C)=N/NC(N)=S)c(OC)c1`: the TGI is above 100 µM in experiment [1]; above 100 µM in [2]; above 100 µM in experiment [3]; above 100 µM in [4]; 62.3 µM in experiment [5]; above 100 µM in [6]. For the same molecule, the TGI in experiment [7], in [8] and in [9] was above 100 µM each time.

Consider `CC(Oc1ccc2cc(C(=O)c3ccccc3)c(=O)oc2c1)C(=O)O` (centres undefined), for which the TGI in [1], in experiment [2], in [3], in [4], in experiment [5] and in experiment [6] was above 100 µM in each case. Further, the TGI in experiment [7], in [8] and in [9] was above 100 µM each time.

Consider `O=C1C(Cl)=C(Nc2cccc(O)c2)C(=O)N1c1cccc(Cl)c1Cl`, for which the GI50 in [2] is 15.9 µM; in experiment [3], 24.6 µM; in experiment [10], 12.3 µM; in [4] it was 14.8 µM; in [5] it was 12.4 µM; in experiment [7] it was 11.7 µM. Further, in experiment [8], the GI50 is 20.2 µM. In addition, the TGI in experiment [2] came out at 62.9 µM; in [3], 86.8 µM; in [10] it was 34.2 µM; in [4], 51.5 µM; in [5], 27 µM; in experiment [7] it was 28.8 µM. For the same molecule, in [8], the TGI was found to be 80 µM.

`COc1ccc(C(=O)O)c(Cc2ccc3ccccc3c2)c1`: the TGI in experiment [1], in [2], in [3], in [4], in [5] and in experiment [6] was above 100 µM each time. Further, the TGI in [7], in experiment [8] and in experiment [9] was above 100 µM each time.

As to `CC1=C(C(=O)Nc2ccccc2C)C(c2ccc(C3C(C(=O)Nc4ccccc4C)=CNC=C3C(=O)Nc3ccccc3C)cc2)C(C(=O)Nc2ccccc2C)=C(C)N1`, the TGI in experiment [1] came to 29.9 µM; in experiment [2], 48.7 µM; in [3], 29.2 µM; in experiment [4], 48 µM; in experiment [5], 18.9 µM; in experiment [6] it was 39.5 µM. Also, the values for the TGI in experiment [7], in experiment [8] and in experiment [9] were 17.4 µM, above 100 µM and 33.2 µM, respectively.

Turning to `c1ccc(C2N3CCCCC3[C@@H]3c4[nH]c5ccccc5c4CCN23)cc1` (some centres undefined), the TGI in experiment [1] was 48.8 µM; in experiment [2], above 100 µM; in experiment [4], above 100 µM; in [6], above 100 µM; in [7], above 100 µM; in experiment [8] it was above 100 µM. Further, in experiment [9], the TGI was above 100 µM.

For the molecule `Oc1cc2c(cc1O)-c1[nH]ncc1CC2`, the TGI in [1] was 76.6 µM; in [2], above 100 µM; in experiment [3] it was above 100 µM; in [4], above 100 µM; in experiment [5], 25.5 µM; in experiment [7], above 100 µM. The TGI in experiment [8] and in experiment [9] was above 100 µM each time.

With `CC(O[Si](C)(C)C)C1C=CC(C)n2c(=O)n(-c3ccccc3)c(=O)n21` (centres undefined), the TGI in experiment [1], in experiment [2], in [3], in experiment [6] and in [8] was above 100 µM throughout.

Take `O=C(c1ccc2c3c(ccc(C(=O)C(F)(F)F)c13)CC2)C(F)(F)F`: the TGI in experiment [2] was above 100 µM; in [3] it was above 100 µM; in experiment [4], above 100 µM; in experiment [5], 98.9 µM; in experiment [6] it was above 100 µM; in experiment [7], above 100 µM. In addition, the TGI in [8] and in experiment [9] was above 100 µM in each case.

With `ClC[Si]12OCCN(CCO1)CCO2`, the TGI in [1], in [3], in experiment [4], in experiment [5], in experiment [6] and in experiment [7] was above 100 µM throughout. Moreover, the TGI in experiment [8] and in [9] was above 100 µM throughout.

For `Cc1cc2c(cc1C)[n+](=O)c(C(=O)/C=C/c1ccccc1Cl)c(C)n2[O-]`, the TGI in [1] was 99.6 µM; in experiment [2] it was 58.9 µM; in experiment [3] it was 96.2 µM; in [4], 63.7 µM; in experiment [5] it was 26.7 µM; in [6], 88.8 µM. In addition, the values for the TGI in experiment [7], in [8] and in [9] were 95.9 µM, 57.3 µM and 57.5 µM, respectively.

As for `CN(C)/C=N/c1nc2ncn(CCOC(=O)c3ccccc3)c2c(=O)[nH]1`, the TGI in experiment [1], in experiment [2], in [3], in experiment [4], in experiment [5] and in experiment [6] was above 100 µM throughout. Moreover, the TGI in experiment [7], in experiment [8] and in experiment [9] was above 100 µM each time.

On to `CN(C)CCC1(C2=CCCC2)CC/C(=C\c2ccccc2)C1=O` (centres undefined), for which the TGI in experiment [1] is 29.9 µM; in [2] it was 30 µM; in [3], 28.8 µM; in experiment [4], 31.3 µM; in [5], 27.4 µM; in [6], 28.5 µM. Also, the TGI in [7] was 42.2 µM; in experiment [8], 29 µM; in experiment [9] it was 28.5 µM.

For the molecule `CC(C)CC(=O)NS(=O)(=O)c1ccccc1`, the TGI in experiment [1], in experiment [2], in [3], in experiment [4], in experiment [5] and in experiment [6] was above 100 µM in each case. Besides, the TGI in experiment [7], in experiment [8] and in [9] was above 100 µM in each case.

As to `CC1(C)OC(=O)C(=C2CC(c3ccccc3)c3ccccc32)C(=O)O1` (centres undefined), the TGI in experiment [1], in [2], in experiment [4], in [5], in experiment [6] and in experiment [7] was above 100 µM throughout. In addition, the TGI in [8] and in experiment [9] was above 100 µM in each case.

Turning to `Cc1cc2c(c(N)c1C)C(=O)c1ccccc1C2=O`, the TGI was above 100 µM in experiment [1]; 40 µM in experiment [2]; above 100 µM in experiment [3]; above 100 µM in experiment [4]; above 100 µM in [5]; above 100 µM in experiment [7]. In addition, the TGI in [8] is 93.1 µM; in [9], above 100 µM.

For the molecule `CCSc1nc2n(c(=S)n1)CCN2C`, the TGI in [1] came out at 46.1 µM; in experiment [2] it was 68.8 µM; in experiment [3], 52.3 µM; in [4], 39.7 µM; in [5] it was 19.3 µM; in experiment [6], 49.3 µM. For the same molecule, the TGI is 65.8 µM in experiment [7] and 25.5 µM in [9].

In the case of `CC1=C(c2cc(C(=O)Nc3nccs3)nc(NC#N)n2)Sc2ccccc2N1`, the TGI in experiment [1], in experiment [2], in [3], in experiment [4], in [5] and in experiment [6] was above 100 µM in each case. For the same molecule, the TGI in experiment [7], in experiment [8] and in experiment [9] was above 100 µM throughout.

`O=C([O-])c1ccccc1Nc1ccccc1[O-].[Ni+3].[OH3+].[OH3+].[OH3+]`: the GI50 in [2], in experiment [3], in [4], in [5], in experiment [6] and in experiment [7] was above 100 µM throughout. For the same molecule, the GI50 in experiment [9] was above 100 µM. For the same molecule, the TGI in [2], in [3], in experiment [4], in experiment [5], in experiment [6] and in experiment [7] was above 100 µM each time. In experiment [9], this molecule came in with a total growth inhibition concentration (TGI) above 100 µM.

Take `CC1CCC23COC(=O)C2C(O)CCC3C1(C)CC(O)c1ccoc1` (centres undefined): the TGI in experiment [2], in experiment [3], in experiment [4], in experiment [5], in experiment [6] and in experiment [7] was above 100 µM in each case. Also, the TGI in experiment [8] and in [9] was above 100 µM throughout.

With `CC(C)Oc1ccc(C(=O)N[C@H](CNC(=O)CN(C)C)Cc2ccc(-c3cn4cccc([C@H](C)O)c4n3)cc2)cc1Cl`, the GI50 in [3] is 0.0381 µM; in experiment [10] it was 0.0445 µM; in experiment [4] it was 0.036 µM; in [5], 0.0229 µM; in [6], 0.0393 µM; in experiment [7], 0.0727 µM. For the same molecule, the GI50 in experiment [8] is 11.8 µM; in experiment [9], 1.36 µM. For the same molecule, the TGI amounted to 18 µM in experiment [3]; 8.2 µM in experiment [10]; 12.6 µM in [4]; 0.0698 µM in [5]; 15.7 µM in experiment [6]; 20.9 µM in experiment [7]. Also, the TGI was determined as 24.6 µM in [8] and 11.3 µM in [9].

Consider `O=C1C(N2C(=O)c3ccccc3C2=O)CN1C(COCc1ccccc1)c1ccc(OCc2ccccc2)cc1` (centres undefined), for which the TGI in experiment [1], in [2], in experiment [3], in [4], in experiment [5] and in experiment [6] was above 100 µM each time. For the same molecule, the TGI in [7], in [8] and in [9] was above 100 µM throughout.

In the case of `O=c1[nH]c(/C=C(\O)c2ccncc2)nc2ccccc12`, the TGI in experiment [1], in experiment [2], in experiment [4], in experiment [5], in experiment [6] and in [7] was above 100 µM in each case. Also, the TGI in experiment [8] and in [9] was above 100 µM each time.
